Laboratory results from patent US12655116B2, “Substituted isophthalic acid diamides” (Bayer Aktiengesellschaft, priority 2020, dated 2026).

How the values were obtained:
ABUTH [1] = assay: Pre-emergence herbicidal action against ABUTH; assay type: in vivo, Abutilon theophrasti; conditions: for Pre-emergence action against ABUTH (herbicidal activity): 80 g/ha, scored visually after 3 weeks vs untreated controls (100% = plants have died, 0% = like control plants); for Pre-emergence action against ABUTH (herbicidal activity in percent): dosage 20 g/ha, scored visually after 3 weeks vs untreated controls, 100% = plants have died, 0% = like control plants
Summary of the method: (§1)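 Greenhouse pots of sandy loam held seeds covered with soil, onto which the compound was applied before emergence. An aqueous suspension or emulsion of WP or EC was used at 600 to 800 l/ha with 0.2% wetting agent. Percent damage was judged visually at 3 weeks.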

ALOMY [2] = assay: Pre-emergence herbicidal action against ALOMY; assay type: in vivo, Alopecurus myosuroides; conditions: 80 g/ha, pre-emergence, scored visually after 3 weeks vs untreated controls (100% = plants have died, 0% = like control plants)
Summary of the method: as §1

AMARE [3] = assay: Pre-emergence herbicidal action against AMARE; assay type: in vivo, Amaranthus retroflexus
Summary of the method: as §1

ECHCG [4] = assay: Pre-emergence herbicidal action against ECHCG; assay type: in vivo, Echinochloa crus-galli; conditions: 80 g/ha
Summary of the method: as §1

LOLRI = assay: Pre-emergence herbicidal action against LOLRI; assay type: in vivo, Lolium rigidum; conditions: 80 g/ha
Summary of the method: as §1

MATIN [5] = assay: Pre-emergence herbicidal action against MATIN; assay type: in vivo, Matricaria inodora
Summary of the method: as §1

PHBPU [6] = assay: Pre-emergence herbicidal action against PHBPU; assay type: in vivo, Pharbitis purpurea; conditions: dosage 80 g/ha
Summary of the method: as §1

SETVI [7] = assay: Pre-emergence herbicidal action against SETVI; assay type: in vivo, Setaria viridis; conditions: dosage 80 g/ha
Summary of the method: as §1

VERPE [8] = assay: Pre-emergence herbicidal action against VERPE; assay type: in vivo, Veronica persica; conditions: dosage 80 g/ha
Summary of the method: as §1

VIOTR [9] = assay: Pre-emergence herbicidal action against VIOTR; assay type: in vivo, Viola tricolor
Summary of the method: as §1

ABUTH [10] = assay: Post-emergence herbicidal action against ABUTH; assay type: in vivo, Abutilon theophrasti; conditions: visual assessment about 3 weeks after treatment vs untreated controls
Summary of the method: (§2)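 Foliar application at one-leaf stage of formulated test compounds, aqueous spray at 600–800 l/ha with 0.2% wetting agent. Greenhouse, optimal conditions, ~3 weeks; damage scored visually in % relative to untreated plants.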

ALOMY [11] = assay: Post-emergence herbicidal action against ALOMY; assay type: in vivo, Alopecurus myosuroides; conditions: dosage 20 g/ha, visual assessment about 3 weeks after treatment vs untreated controls
Summary of the method: as §2

AMARE [12] = assay: Post-emergence herbicidal action against AMARE; assay type: in vivo, Amaranthus retroflexus; conditions: 20 g/ha, visual assessment about 3 weeks after treatment, 100% = plants have died, 0% = like control plants
Summary of the method: as §2

AVEFA [13] = assay: Post-emergence herbicidal action against AVEFA; assay type: in vivo, Avena fatua; conditions: 20 g/ha, visual assessment about 3 weeks after treatment, 100% = plants have died, 0% = like control plants
Summary of the method: as §2

ECHCG [14] = assay: Post-emergence herbicidal action against ECHCG; assay type: in vivo, Echinochloa crus-galli
Summary of the method: as §2

MATIN [15] = assay: Post-emergence herbicidal action against MATIN; assay type: in vivo, Matricaria inodora
Summary of the method: as §2

PHBPU [16] = assay: Post-emergence herbicidal action against PHBPU; assay type: in vivo, Pharbitis purpurea
Summary of the method: as §2

SETVI [17] = assay: Post-emergence herbicidal action against SETVI; assay type: in vivo, Setaria viridis
Summary of the method: as §2

VERPE [18] = assay: Post-emergence herbicidal action against VERPE; assay type: in vivo, Veronica persica; conditions: 20 g/ha
Summary of the method: as §2

VIOTR [19] = assay: Post-emergence herbicidal action against VIOTR; assay type: in vivo, Viola tricolor; conditions: 20 g/ha
Summary of the method: as §2

AVEFA [20] = assay: Pre-emergence herbicidal action against AVEFA; assay type: in vivo, Avena fatua; conditions: 80 g/ha, pre-emergence
Summary of the method: as §1

DIGSA [21] = assay: Pre-emergence herbicidal action against DIGSA; assay type: in vivo, Digitaria sanguinalis
Summary of the method: as §1

DIGSA [22] = assay: Post-emergence herbicidal action against DIGSA; assay type: in vivo, Digitaria sanguinalis; conditions: 20 g/ha
Summary of the method: as §2

[23] = 20 g/ha, scored visually after 3 weeks vs untreated controls, 100% = plants have died, 0% = like control plants
[24] = 80 g/ha, scored visually after 3 weeks vs untreated controls (100% = plants have died, 0% = like control plants)

SMILES | Pre-emergence action against ABUTH (herbicidal activity) (ABUTH [1]) [%] | Pre-emergence action against ABUTH (herbicidal activity in percent) (ABUTH [1]) [%] | Pre-emergence action against ALOMY (herbicidal activity) (ALOMY [2]) [%] | Pre-emergence action against AMARE in % (AMARE [3]; [23]) [%] | Pre-emergence action against AMARE in % (AMARE [3]; [24]) [%] | Pre-emergence action against ECHCG in % (ECHCG [4]) [%] | Pre-emergence action against LOLRI in % (LOLRI) [%] | Pre-emergence action against MATIN in % (MATIN [5]; dosage 20 g/ha) [%] | Pre-emergence action against MATIN in % (MATIN [5]; dosage 80 g/ha) [%] | Pre-emergence action against PHBPU in % (PHBPU [6]) [%] | Pre-emergence action against SETVI in % (SETVI [7]) [%] | Pre-emergence action against VERPE in % (VERPE [8]) [%] | Pre-emergence action against VIOTR in % (VIOTR [9]; dosage 80 g/ha) [%] | Post-emergence action against ABUTH in % (ABUTH [10]; dosage 20 g/ha) [%] | Post-emergence action at 20 g/ha against AMARE in % (AMARE [12]) [%] | Post-emergence action at 20 g/ha against AVEFA in % (AVEFA [13]) [%] | Post-emergence action against ECHCG in % (ECHCG [14]; dosage 5 g/ha) [%] | Post-emergence action against ECHCG in % (ECHCG [14]; dosage 20 g/ha) [%] | Post-emergence action against MATIN in % (MATIN [15]; dosage 20 g/ha) [%] | Post-emergence action against PHBPU in % (PHBPU [16]; dosage 20 g/ha) [%] | also measured
CSc1c(C(=O)Nc2nnnn2C)ccc(C(F)F)c1C(=O)NCC(F)F [Example 1-92] | 100 | 100 | 90 | 100 | 100 | 100 | 90 | 100 | 100 | 90 | 100 | 100 | 100 | 100 | 100 | 90 | 100 | 100 | 80 | 90 | Post-emergence action against ABUTH in % (ABUTH [10]; dosage 5 g/ha): 90%; Post-emergence action against ALOMY in % (ALOMY [11]): 90%; Post-emergence action against SETVI in % (SETVI [17]; dosage 5 g/ha): 90%; Post-emergence action against SETVI in % (SETVI [17]; dosage 20 g/ha): 100%; Post-emergence action against VERPE in % (VERPE [18]): 90%; Post-emergence action against VIOTR in % (VIOTR [19]): 100%
CCn1nnnc1NC(=O)c1ccc(C(F)(F)F)c(C(=O)NC(C)C2CC2)c1Cl (stereo not shown) [Example 2-135] | 100 | 100 | 90 | 100 | 100 | 100 | 80 | 90 | 100 | 80 | 100 | 100 | 100 | 80 | 90 | 80 | 80 | 90 | 90 | 80 | Pre-emergence action against AVEFA in % (AVEFA [20]): 90%; Pre-emergence action against VIOTR in % (VIOTR [9]; dosage 20 g/ha): 100%; Pre-emergence action against DIGSA in % (DIGSA [21]; dosage 20 g/ha): 100%; Pre-emergence action against DIGSA in % (DIGSA [21]; dosage 80 g/ha): 100%; Post-emergence action against MATIN in % (MATIN [15]; dosage 5 g/ha): 90%; Post-emergence action against PHBPU in % (PHBPU [16]; dosage 5 g/ha): 80%; Post-emergence action against VERPE in % (VERPE [18]): 90%; Post-emergence action against VIOTR in % (VIOTR [19]): 90%; Post-emergence action against DIGSA (DIGSA [22]): 80%
